This note sets out measurements from US20240228469A1, “PCSK9 INHIBITORS AND METHODS OF USE THEREOF” (AstraZeneca AB, priority 2022, published 2024).

Usually IC50 stands for the point on the concentration scale where inhibition reaches its midpoint.

Structures are written as SMILES.

In test [1] the target is T1, potassium ion channel hERG (Homo sapiens, UniProt Q12809).
T1 construct: expressed in transfected cells; host or cells: Chinese hamster ovary K1 (CHO)
Put plainly: Assay 5 hERG assay (patch clamp, CHO cells over-expressing hERG). Type of test: cell-based. The note with it: SyncroPatch 384PE, room temperature, geometric mean, read-out: Assay 5 (hERG Hu CHO if EPh CR-Syncro) GMean IC50. In a few lines:
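hERG currents recorded by automated patch clamp at room temperature in CHO-K1 cells, 6-point cumulative concentrations. SyncroPatch runs used KF-based internal (pH 7.2) and NMDG-containing external solution (pH 7.4), 0.33% DMSO; QPatchII runs used 2% or 0.4% DMSO. Only wells meeting seal-resistance and current-size criteria kept.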
On the technique in general: Block of hERG is tested as a sign of cardiac risk.

The target of test [2] is GSK3β (Glycogen synthase kinase-3 beta) (Homo sapiens, UniProt P49841). The test can be described thus: Assay 6 GSK3β assay (ThermoFisher Z-Lyte FRET). Type of test: biochemical. The note with it: ATP Conc: 10 μM, geometric mean; read-out: Assay 6 (GSK3β FRET-Z-Lyte Cr) GMean IC50. The essentials: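 Z-Lyte FRET: 0.22-0.92 ng kinase with 2 μM Ser/Thr 09 peptide in HEPES pH 7.5, MgCl2, EGTA, 60 min at room temperature, then 60 min development. Compounds in 1% DMSO, 10-point 3-fold series from 10 μM; sigmoidal dose-response fit.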

Test [3] concerns the target T2, PCSK9 (Homo sapiens, UniProt Q8NBP7, G670E/V474I). Put plainly: biochemical.
Test [4] has as its target T2, PCSK9. The test can be described thus: Assay 3 PCSK9 LDL-C uptake assay in HepG2 cells. Type of test: cell-based. On the set-up: TEV site (C); His6 (C); host or cells: added to HepG2 (ATCC #HB-8065). Conditions: 125 nM PCSK9, pHrodo Red-LDL, read-out: Assay 3 LDL uptake potency. In a few lines:
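HepG2 cells were plated for 24 h, then exposed for 24 h at 37 °C to compounds (half-log series, 10 μM top) with 125 nM exogenous PCSK9. pHrodo Red-LDL ([…]) uptake was then imaged by fluorescence at 4 h and 24 h. Signal was normalized as % effect between DMSO and 100 nM evolocumab, with a four-parameter logistic fit.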

T1 sequence (Q12809 whole entry): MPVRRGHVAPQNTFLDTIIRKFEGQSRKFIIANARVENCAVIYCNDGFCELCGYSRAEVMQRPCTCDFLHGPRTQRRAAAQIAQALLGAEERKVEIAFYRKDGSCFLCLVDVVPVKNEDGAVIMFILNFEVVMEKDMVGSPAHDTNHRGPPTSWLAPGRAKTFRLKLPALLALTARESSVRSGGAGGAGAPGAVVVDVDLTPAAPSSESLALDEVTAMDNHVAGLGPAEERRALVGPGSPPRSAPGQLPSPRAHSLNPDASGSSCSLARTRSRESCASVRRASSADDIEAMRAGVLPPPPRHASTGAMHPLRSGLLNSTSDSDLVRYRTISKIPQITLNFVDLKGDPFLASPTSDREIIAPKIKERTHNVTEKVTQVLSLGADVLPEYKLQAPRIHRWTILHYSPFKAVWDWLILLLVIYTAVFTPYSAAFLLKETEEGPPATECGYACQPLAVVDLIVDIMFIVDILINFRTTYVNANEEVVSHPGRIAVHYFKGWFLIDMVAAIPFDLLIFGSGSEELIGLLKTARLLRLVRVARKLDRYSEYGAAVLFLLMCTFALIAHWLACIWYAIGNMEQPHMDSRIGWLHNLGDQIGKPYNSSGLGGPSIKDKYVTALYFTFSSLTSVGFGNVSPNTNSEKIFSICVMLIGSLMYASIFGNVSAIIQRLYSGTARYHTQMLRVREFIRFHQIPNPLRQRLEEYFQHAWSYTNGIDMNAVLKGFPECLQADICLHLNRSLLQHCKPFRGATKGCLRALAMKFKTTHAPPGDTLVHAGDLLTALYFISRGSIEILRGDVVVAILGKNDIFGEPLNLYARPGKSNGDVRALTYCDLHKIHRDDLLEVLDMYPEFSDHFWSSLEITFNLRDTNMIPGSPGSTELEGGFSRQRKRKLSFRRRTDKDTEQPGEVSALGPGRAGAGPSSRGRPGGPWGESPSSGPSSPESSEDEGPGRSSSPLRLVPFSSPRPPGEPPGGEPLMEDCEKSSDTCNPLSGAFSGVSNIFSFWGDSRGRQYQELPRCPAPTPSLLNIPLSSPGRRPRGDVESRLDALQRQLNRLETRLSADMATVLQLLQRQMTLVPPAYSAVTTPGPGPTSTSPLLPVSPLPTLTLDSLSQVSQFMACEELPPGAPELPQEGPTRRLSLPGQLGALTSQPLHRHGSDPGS
T2 sequence (Q8NBP7 with tags, fused parts or gaps V474I/G670E): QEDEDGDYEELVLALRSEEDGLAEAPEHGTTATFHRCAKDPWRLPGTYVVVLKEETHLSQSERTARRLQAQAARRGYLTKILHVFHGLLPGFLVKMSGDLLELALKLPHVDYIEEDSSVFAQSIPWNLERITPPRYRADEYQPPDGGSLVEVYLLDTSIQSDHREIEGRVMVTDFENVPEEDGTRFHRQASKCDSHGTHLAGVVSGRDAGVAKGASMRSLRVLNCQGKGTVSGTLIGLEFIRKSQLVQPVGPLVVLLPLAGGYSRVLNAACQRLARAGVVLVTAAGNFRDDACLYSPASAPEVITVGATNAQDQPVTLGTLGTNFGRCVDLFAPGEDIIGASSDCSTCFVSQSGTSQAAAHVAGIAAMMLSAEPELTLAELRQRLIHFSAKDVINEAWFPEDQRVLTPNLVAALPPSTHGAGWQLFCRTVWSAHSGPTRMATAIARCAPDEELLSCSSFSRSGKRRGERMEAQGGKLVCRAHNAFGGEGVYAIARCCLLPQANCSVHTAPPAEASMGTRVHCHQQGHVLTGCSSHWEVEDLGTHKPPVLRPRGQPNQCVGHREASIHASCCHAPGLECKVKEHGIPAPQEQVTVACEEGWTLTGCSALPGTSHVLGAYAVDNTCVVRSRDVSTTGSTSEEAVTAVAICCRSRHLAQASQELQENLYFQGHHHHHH
Chain of GSK3β (Glycogen synthase kinase-3 beta) (P49841 whole entry): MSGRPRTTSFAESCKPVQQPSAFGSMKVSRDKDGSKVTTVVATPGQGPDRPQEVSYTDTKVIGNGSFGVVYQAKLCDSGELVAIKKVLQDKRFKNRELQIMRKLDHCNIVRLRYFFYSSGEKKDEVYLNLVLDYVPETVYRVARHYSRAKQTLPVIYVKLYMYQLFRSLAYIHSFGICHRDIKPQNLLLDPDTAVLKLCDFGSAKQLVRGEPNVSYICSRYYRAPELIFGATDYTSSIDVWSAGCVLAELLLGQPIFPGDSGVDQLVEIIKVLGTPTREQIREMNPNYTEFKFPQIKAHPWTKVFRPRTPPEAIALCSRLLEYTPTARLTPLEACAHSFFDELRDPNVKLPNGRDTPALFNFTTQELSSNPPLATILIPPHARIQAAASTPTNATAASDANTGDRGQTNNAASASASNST

Regarding `Cn1c(=O)n(-c2ccc(N[C@H]3CC[C@H](Nc4ncc(C5CC5)nn4)C3)nc2)c2cc(C#N)ccc21` [Example 116, 3-(6-(((1S,3S)-3-((6-Cyclopropyl-1,2,4-triazin-3-yl)amino)cyclopentyl)amino)pyridin-3-yl)-1-methyl-2-oxo-2,3-dihydro-1H-benzo[d]imidazole-5-carbonitrile], the results for the IC50 in test [1], in test [2] and in test [3] were 12000 nM, more than 10000 nM and 0.7 nM, respectively. Moreover, in test [4], the EC50 came to 100 nM.

As for `Cc1cnc(N[C@H]2CC[C@H](Nc3ccc(-n4cccc(Cl)c4=O)cn3)C2)nn1` [Example 129, 3-Chloro-6′-(((1S,3S)-3-((6-methyl-1,2,4-triazin-3-yl)amino)cyclopentyl)amino)-2H-[1,3′-bipyridin]-2-one], the IC50 is more than 40000 nM in test [1], 4850 nM in test [2] and 1.6 nM in test [3]. Besides, the EC50 in test [4] was determined as 100 nM.

For `COc1ccc(=O)n(-c2ccc(N[C@H]3CC[C@H](Nc4ncc(C)nn4)C3)nc2)c1` [Example 133, 5-Methoxy-6′-(((1S,3S)-3-((6-methyl-1,2,4-triazin-3-yl)amino)cyclopentyl)amino)-2H-[1,3′-bipyridin]-2-one], the IC50 in test [1] was more than 40000 nM; in test [2] it was 32 nM; in test [3], 17 nM. In addition, in test [4], the EC50 worked out at 400 nM.

Turning to `Cn1c(=O)n(-c2ccc(N[C@H]3CC[C@H](Nc4ncc(C5CC5)nn4)C3)nc2)c2ncccc21` [Example 63, 3-(6-(((1S,3S)-3-((6-Cyclopropyl-1,2,4-triazin-3-yl)amino)cyclopentyl)amino)pyridin-3-yl)-1-methyl-1,3-dihydro-2H-imidazo[4,5-b]pyridin-2-one], the IC50 in test [1] is more than 40000 nM; in test [2], more than 10000 nM. In addition, the EC50 in test [4] stood at 100 nM.

For `Cc1cnc(N[C@H]2CC[C@H](Nc3ccc(-n4c(=O)ccc5cccnc54)cn3)C2)nn1` [Example 197, 1-(6-(((1S,3S)-3-((6-Methyl-1,2,4-triazin-3-yl)amino)cyclopentyl)amino)pyridin-3-yl)-1,8-naphthyridin-2(1H)-one], the half-maximal inhibitory concentration (IC50) in test [1] is more than 40100 nM; in test [2], more than 10000 nM; in test [3], 2.5 nM. Also, the EC50 in test [4] stood at 100 nM.

Take `COc1cccn(-c2ccc(N[C@H]3CC[C@H](Nc4ncc(C)nn4)C3)nc2)c1=O` [Example 132, 3-Methoxy-6′-(((1S,3S)-3-((6-methyl-1,2,4-triazin-3-yl)amino)cyclopentyl)amino)-2H-[1,3′-bipyridin]-2-one]: the results for the IC50 in test [1], in test [2] and in test [3] were more than 40000 nM, 2060 nM and 2.3 nM, respectively. Besides, the EC50 in test [4] turned out to be 100 nM.

For the compound `CN1CC(=O)N(c2ccc(N[C@H]3CC[C@H](Nc4ncc(C5CC5)nn4)C3)nc2)C1=O` [Example 57, 3-(6-(((1S,3S)-3-((6-Cyclopropyl-1,2,4-triazin-3-yl)amino)cyclopentyl)amino)pyridin-3-yl)-1-methylimidazolidine-2,4-dione], the concentration for half-maximal inhibition (IC50) in test [1] is more than 40000 nM; in test [2], more than 10000 nM; in test [3], 11 nM. In test [4], the EC50 is 500 nM.

For the compound `COc1cccn(-c2ccc(N[C@H]3CC[C@H](Nc4ncc(C5CC5)nn4)C3)nc2)c1=O` [Example 64, 6′-(((1S,3S)-3-((6-Cyclopropyl-1,2,4-triazin-3-yl)amino)cyclopentyl)amino)-3-methoxy-2H-[1,3′-bipyridin]-2-one], the IC50 is more than 40000 nM in test [1], 385 nM in test [2] and 1.5 nM in test [3]. In addition, in test [4], the EC50 turned out to be 200 nM.

For the compound `O=c1c(C(F)(F)F)cccn1-c1ccc(N[C@H]2CC[C@H](Nc3ncc(C4CC4)nn3)C2)nc1` [Example 51, 6′-(((1S,3S)-3-((6-Cyclopropyl-1,2,4-triazin-3-yl)amino)cyclopentyl)amino)-3-(trifluoromethyl)-2H-[1,3′-bipyridin]-2-one], the values for the IC50 in test [1], in test [2] and in test [3] were 10800 nM, more than 10000 nM and 1.8 nM, respectively. For the same compound, the EC50 in test [4] is 100 nM.

In the case of `Cc1cccn(-c2ccc(N[C@H]3CC[C@H](Nc4ncc(C5CC5)nn4)C3)nc2)c1=O` [Example 66, 6′-(((1S,3S)-3-((6-Cyclopropyl-1,2,4-triazin-3-yl)amino)cyclopentyl)amino)-3-methyl-2H-[1,3′-bipyridin]-2-one], the half-maximal inhibitory concentration (IC50) in test [1] was more than 40000 nM; in test [2], more than 10000 nM; in test [3] it was 1.7 nM. Besides, in test [4], the EC50 amounted to 100 nM.

Take `Cc1cnc(N[C@H]2CC[C@H](Nc3ccc(-n4cc(Cl)ccc4=O)cn3)C2)nn1` [Example 134, 5-Chloro-6′-(((1S,3S)-3-((6-methyl-1,2,4-triazin-3-yl)amino)cyclopentyl)amino)-2H-[1,3′-bipyridin]-2-one]: the IC50 was more than 40000 nM in test [1], 439 nM in test [2] and 8.4 nM in test [3]. Besides, the EC50 in test [4] worked out at 500 nM.

Turning to `O=c1ccncn1-c1ccc(N[C@H]2CC[C@H](Nc3ncc(C4CC4)nn3)C2)nc1` [Example 114, 3-(6-(((1S,3S)-3-((6-Cyclopropyl-1,2,4-triazin-3-yl)amino)cyclopentyl)amino)pyridin-3-yl)pyrimidin-4(3H)-one], the IC50 in test [1] is 18600 nM; in test [2], more than 10000 nM; in test [3], 7.6 nM. The EC50 in test [4] came out at 300 nM.

On to `Cc1cnc(N[C@H]2CC[C@H](Nc3ccc(-n4cccc(C(F)(F)F)c4=O)cn3)C2)nn1` [Example 135, 6′-(((1S,3S)-3-((6-Methyl-1,2,4-triazin-3-yl)amino)cyclopentyl)amino)-3-(trifluoromethyl)-2H-[1,3′-bipyridin]-2-one], for which the results for the IC50 in test [1], in test [2] and in test [3] were more than 40000 nM, more than 10000 nM and 2.8 nM, respectively. The EC50 in test [4] worked out at 100 nM.

On to `O=c1ccc(Cl)cn1-c1ccc(N[C@H]2CC[C@H](Nc3ncc(C4CC4)nn3)C2)nc1` [Example 112, 5-Chloro-6′-(((1S,3S)-3-((6-cyclopropyl-1,2,4-triazin-3-yl)amino)cyclopentyl)amino)-2H-[1,3′-bipyridin]-2-one], for which the half-maximal inhibitory concentration (IC50) in test [1] was more than 40100 nM; in test [2], 6400 nM; in test [3], 4.7 nM. Further, the EC50 in test [4] is 200 nM.

On to `Cc1cnc(N[C@H]2CC[C@H](Nc3ccc(-n4cccc(-c5cnn(C)c5)c4=O)cn3)C2)nn1` [Example 198, 6′-(((1S,3S)-3-((6-Methyl-1,2,4-triazin-3-yl)amino)cyclopentyl)amino)-3-(1-methyl-1H-pyrazol-4-yl)-2H-[1,3′-bipyridin]-2-one], for which the IC50 is more than 40100 nM in test [1], more than 10000 nM in test [2] and 2.9 nM in test [3]. Also, the EC50 in test [4] is 100 nM.

Take `CN1C(=O)CN(c2ccc(N[C@H]3CC[C@H](Nc4ncc(C5CC5)nn4)C3)nc2)C1=O` [Example 62, 1-(6-(((1S,3S)-3-((6-Cyclopropyl-1,2,4-triazin-3-yl)amino)cyclopentyl)amino)pyridin-3-yl)-3-methylimidazolidine-2,4-dione]: the IC50 is 36300 nM in test [1], more than 10000 nM in test [2] and 6.5 nM in test [3]. In test [4], the EC50 is 300 nM.

Regarding `Cc1cnc(N[C@H]2CC[C@H](Nc3ccc(-n4c(=O)n(C)c5ccc(C#N)cc54)cn3)C2)nn1` [Example 210, 1-Methyl-3-(6-(((1S,3S)-3-((6-methyl-1,2,4-triazin-3-yl)amino)cyclopentyl)amino)pyridin-3-yl)-2-oxo-2,3-dihydro-1H-benzo[d]imidazole-5-carbonitrile], the concentration for half-maximal inhibition (IC50) is more than 40100 nM in test [1], more than 10000 nM in test [2] and 0.9 nM in test [3]. Also, the EC50 in test [4] was 100 nM.

In the case of `Cc1cnc(N[C@H]2CC[C@H](Nc3ccc(-n4cccc(C)c4=O)cn3)C2)nn1` [Example 131, 3-Methyl-6′-(((1S,3S)-3-((6-methyl-1,2,4-triazin-3-yl)amino)cyclopentyl)amino)-2H-[1,3′-bipyridin]-2-one], the IC50 in test [1] is more than 72600 nM; in test [2] it was more than 10000 nM; in test [3] it was 2.7 nM. Also, the EC50 in test [4] worked out at 100 nM.

Consider `N#Cc1cccn(-c2ccc(N[C@H]3CC[C@H](Nc4ncc(C5CC5)nn4)C3)nc2)c1=O` [Example 58, 6′-(((1S,3S)-3-((6-Cyclopropyl-1,2,4-triazin-3-yl)amino)cyclopentyl)amino)-2-oxo-2H-[1,3′-bipyridine]-3-carbonitrile], for which the IC50 in test [1] was more than 40000 nM; in test [2], more than 10000 nM; in test [3], 1.6 nM. For the same compound, the EC50 in test [4] was found to be 100 nM.

Take `Cc1cnc(N[C@H]2CC[C@H](Nc3ccc(-n4nccc(Cl)c4=O)cn3)C2)nn1` [Example 221, 4-Chloro-2-(6-(((1S,3S)-3-((6-methyl-1,2,4-triazin-3-yl)amino)cyclopentyl)amino)pyridin-3-yl)pyridazin-3(2H)-one]: the IC50 in test [1] was more than 40100 nM; in test [2] it was more than 10000 nM; in test [3], 1.6 nM. Further, in test [4], the EC50 came to 300 nM.
